Measured values published in US9321717B2, “Process for rapid identification and preparation of crystalline forms” (Allergan, Inc., priority 2011, dated 2016).
“Also recorded” adds a separate entry of the source.

How the values were obtained:
[1] = Form risk assessment (FRA) crystallization workflow with XRPD form identification; format: physicochemical; settings: for FRA_EV: forms from evaporation; for FRA_TC: forms from thermocycled slurrying; for Forms Found by FRA: model compounds, crystalline, used as received, * = low energy form
From the text: However, certain basic elements of the polymorph screening experiments are incorporated, such as solubility estimation, solvent-mediated form transformation, as well as super saturation adjustment by cooling, antisolvent addition, and evaporation, etc. The following procedure outlines the logical steps of performing an FRA experiment: • 1. Determine the physicochemical properties of the starting material (compound as received) • 2. Estimate the solubilities of the compound in twenty-four solvents with diverse solvent properties. • 3. Design approximately sixteen crystallization experiments with appropriate solvent systems based on the results of the solubility estimations. • 4. Prepare the crystallization samples and examine their solubilities in the sixteen solvent systems at elevated temperature. • 5. Conduct the crystallization experiment according to the designed workflow. • 6. Characterize and analyze the materials isolated from the crystallization experiments.
The solubility of the API is visually estimated by the “dynamic method” in each of the twenty-four solvents. This method is used to quickly bin the solvents into different categories, such as good solvents, poor solvents, and intermediates. The following describes the general procedure of the solubility estimation: • 1. Place weighed amounts of drug in clear glass vials to which incremental volumes (20-500 μL) of solvent are added until the solution turns clear. • 2. Apply brief vortexing after each solvent addition. • 3. Calculate the approximate visual solubility of the drug in a solvent by recording the amount of solvent required to completely dissolve the known weight of drug. The preferred unit of solubility is mg/mL.
The suspensions of the drug substance in a variety of solvent systems will be subjected to temperature-cycled slurrying, which is the primary crystallization method. Sixteen sample slurries for thermo-cycled experiments should be prepared with caution to avoid complete dissolution of the solid at elevated temperatures. For slurry with a single solvent system, the initial composition should have approximately 5-10 times higher concentration than the estimated solubility value at ambient temperature. For slurry in a solvent mixture, a suspension of the compound in the antisolvent should first be prepared and followed by the introduction of the solvent to adjust the solubility. The final antisolvent to solvent volume ratio is typically between 3 and 10. Record the amount of compound initially added and the volumes of added solvent aliquots.
Appendix 1 summarizes the typical temperature programs for each experiment. Usually three heat-cool-heat temperature cycles are used. The initial fast thermocycling runs help preliminarily assessing the dissolution behavior of the samples. The slow thermocycling runs focus on generating crystals and increasing the crystallinity and form purity.
If the sample remains a clear solution after the initial thermocycling, the solution is cooled to induce super saturation. During cooling, the original solution may become supersaturated and further reach the metastable limit when spontaneous crystallization starts. Usually the final temperature is 5° C. and the cooling rate is 0.1° C. per minute to facilitate crystal growth.
If the sample is still a clear solution at 5° C., the sample vial will be transferred into a −20° C. freezer for at least 2-3 days. The sample should be regularly examined by visual inspection and/or polarized light microscope for signs of solid formation.
The antisolvents identified during the initial solubility estimation can be used for adjusting the solubility of the drug substance in the primary solvent. The combination of a solvent with a miscible antisolvent provides a continuous solvent space, which potentially maximizes the possibility of capturing a crystalline form. […]

[2] = model compounds; * = low energy form; cited from earlier work

| Compound | FRA_EV [1] | FRA_TC [1] | Reported Forms in the Literature [2] | Forms Found by FRA [1] | forms identified or generated by FRA [1] | FRA_AS ([1]; forms from antisolvent addition) |
| --- | --- | --- | --- | --- | --- | --- |
| O=C(O)c1cc(-c2ccc(F)cc2F)ccc1O [Diflunisal] | I, IV,; also recorded: solvate | I, II, III, IV |  |  |  |  |
| CN1C(C(=O)Nc2ccccn2)=C(O)c2ccccc2S1(=O)=O [Piroxicam] | I, II | I, II,; also recorded: hydrate | I*, II, III, hydrate | I*, II, hydrate |  |  |
| CCNC(=O)CCC/C=C\C[C@@H]1[C@@H](/C=C/[C@@H](O)CCc2ccccc2)[C@H](O)C[C@@H]1O [bimatoprost, Bimatoprost] |  |  |  |  | capture both forms |  |
| COc1ccc2c(c1)c(CC(=O)O)c(C)n2C(=O)c1ccc(Cl)cc1 [Indomethacin] |  | α, β, γ | α, β, γ* | α, β, γ* |  |  |
| NC(=O)N1c2ccccc2C=Cc2ccccc21 [Carbamazepine (E), Carbamazepine] | γ | α, β, γ | α*, β*, γ,; also recorded: dihydrate, solvate | α*, β*, γ |  |  |
| NC(N)=Nc1nc(CSCCC(N)=NS(N)(=O)=O)cs1 [Famotidine] | A, C | A, C | A*, B | A*, B, C; also recorded: (new form) |  |  |
| Nc1ccc(S(=O)(=O)Nc2nccs2)cc1 [Sulfathiazole] |  | I, II, III, IV | I, II, III*, IV*, V | I, II, III*, IV* |  |  |
| O=C(c1ccccc1)c1ccc2n1CCC2C(=O)O (stereo not shown) [Ketorolac free acid] |  |  | I*, II, III, solvate | I*, solvate |  | solvate |
| COC(=O)Nc1nc2ccc(C(=O)c3ccccc3)cc2[nH]1 [Mebendazole] |  | A, B, C | A*, B, C | A*, B, C |  |  |
| CCCCCCCCCCCCCCCCCC(=O)O [Stearic acid (E), Stearic acid] |  | B, C | A, B*, C*, E | B*, C* | both enantiotropic polymorphs |  |
